The text below walks through data of US20230103552A1, “SYSTEMS AND PHARMACEUTICAL COMPOSITIONS FOR TREATMENT BY DIRECT INJECTION OF A TARGETED POPULATION OF CELLS” (Privo Technologies, Inc., priority 2020, published 2023).

Data set [1] deals with established colorectal (MC32a) and pancreatic (Panc02) tumors. To be noted: weekly i.t. injections; cited from earlier work.
For data set [2] the following is noted: mouse, in vivo; cited from earlier work.
For data set [3], the system named is mice grafted with cancer cells. Description: In-vivo mice study, tumor volume vs time. The text has this:
FIG. 6 provides a graph of change in Mice tumor volume vs time involving different treatments. The black curve corresponds to a control untreated tumor, the gray curve corresponds to intratumoreal injection with placebo particles containing no drug, the green curve corresponds to intravenous injection with drug, the red curve corresponds to intratumoreal injection of free drug, and the blue curve corresponds to injection with drug-encapsulated hydrogel PRV311.
Here, the PRV311 composition included microparticles loaded with the anti-tumor cytokine IL-12. […] It is hypothesized that the injected PRV311's polymeric mesh causes microparticles containing PRV311 to be retained locally, increasing efficacy.

Some results are limits rather than exact numbers.

Turning to IL-12: potent antitumor cytokine, the established tumors eradicated in data set [1] is at most 10%. For the same substance, the “local IL-12 retention” value in data set [2] is 1 to 2 days. In addition, the results for the tumor growth result in data set [3] (intratumoral injection) and in data set [3] (intravenous injection) were “merely delayed tumor growth” and “no significant change in tumor growth rate”, respectively.
